Experimental data as given in patent publication US10392368B2, “Pyrazolo and triazolo bicyclic compounds as JAK kinase inhibitors” (THERAVANCE BIOPHARMA R&D IP, LLC, priority 2017, dated 2019).
Where two headings read alike, the source gives them in different places.

How the values were obtained:
JAK1 = molecular target: T1, JAK1 (Homo sapiens, UniProt P23458); experiment: Biochemical JAK1 kinase assay (LanthaScreen); settings: for Ki: read-out: JAK 1 (pKi) (converted)
T1 construct: GST; purchased Life Technologies
Summary of the method: (§1)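 TR-FRET readout (520/495 nm) using Tb-labelled pTyr701 antibody after EDTA stop, following 1 h ATP-started phosphorylation of GFP-STAT1 by recombinant GST-JAK. Compounds preincubated 1 h with enzyme and substrate; pIC50 from 4-parameter fit, Cheng-Prusoff gives pKi.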

JAK2 = molecular target: T2, JAK2 (Homo sapiens, UniProt O60674); experiment: Biochemical JAK2 kinase assay (LanthaScreen); settings: for Ki: read-out: JAK 2 (pKi) (converted)
T2 construct: GST; purchased Life Technologies
Summary of the method: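 GST-tagged recombinant JAK2 pre-incubated 1 h at ambient temperature with compound and GFP-STAT1 peptide in HEPES pH 7.5/MgCl2 buffer, then ATP added for a 1 h reaction with 1% DMSO. TR-FRET read after EDTA and Tb-anti-pSTAT1 (pTyr701) addition; IC50 from 4-parameter fit, converted to pKi by Cheng-Prusoff.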

Tyk2 = molecular target: T3, Tyk2 (Homo sapiens, UniProt P29597); experiment: Biochemical Tyk2 kinase assay (LanthaScreen); settings: for Ki: read-out: Tyk 2 (pKi) (converted)
T3 construct: GST; purchased Life Technologies
Summary of the method: as §1

[1] = system: IL-2 stimulated pSTAT5 in Tall-1 T cells; experiment: Cellular JAK3 potency assay: inhibition of IL-2 stimulated pSTAT5 in Tall-1 T cells; type: cell-based, human; settings: for IC50: Homo sapiens, read-out: Tall-1 (pIC50) (converted)
Summary of the method: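 Tall-1 human T cells (45,000/well) in phenol red-free DMEM with 10% FBS were preincubated with compound 1 h at 37 °C, then stimulated with IL-2 (final 300 ng/ml) for 30 min. Lysate pSTAT5 read by AlphaLisa; IC50 from inhibition curves, reported as pIC50 (mean±SD).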

JAK3 = molecular target: T4, JAK3 (Homo sapiens, UniProt P52333); experiment: Biochemical JAK3 kinase assay (LanthaScreen); design: GST; purchased Life Technologies; settings: for Ki: read-out: JAK 3 (pKi) (converted)
T4 sequence (P52333 1-1124): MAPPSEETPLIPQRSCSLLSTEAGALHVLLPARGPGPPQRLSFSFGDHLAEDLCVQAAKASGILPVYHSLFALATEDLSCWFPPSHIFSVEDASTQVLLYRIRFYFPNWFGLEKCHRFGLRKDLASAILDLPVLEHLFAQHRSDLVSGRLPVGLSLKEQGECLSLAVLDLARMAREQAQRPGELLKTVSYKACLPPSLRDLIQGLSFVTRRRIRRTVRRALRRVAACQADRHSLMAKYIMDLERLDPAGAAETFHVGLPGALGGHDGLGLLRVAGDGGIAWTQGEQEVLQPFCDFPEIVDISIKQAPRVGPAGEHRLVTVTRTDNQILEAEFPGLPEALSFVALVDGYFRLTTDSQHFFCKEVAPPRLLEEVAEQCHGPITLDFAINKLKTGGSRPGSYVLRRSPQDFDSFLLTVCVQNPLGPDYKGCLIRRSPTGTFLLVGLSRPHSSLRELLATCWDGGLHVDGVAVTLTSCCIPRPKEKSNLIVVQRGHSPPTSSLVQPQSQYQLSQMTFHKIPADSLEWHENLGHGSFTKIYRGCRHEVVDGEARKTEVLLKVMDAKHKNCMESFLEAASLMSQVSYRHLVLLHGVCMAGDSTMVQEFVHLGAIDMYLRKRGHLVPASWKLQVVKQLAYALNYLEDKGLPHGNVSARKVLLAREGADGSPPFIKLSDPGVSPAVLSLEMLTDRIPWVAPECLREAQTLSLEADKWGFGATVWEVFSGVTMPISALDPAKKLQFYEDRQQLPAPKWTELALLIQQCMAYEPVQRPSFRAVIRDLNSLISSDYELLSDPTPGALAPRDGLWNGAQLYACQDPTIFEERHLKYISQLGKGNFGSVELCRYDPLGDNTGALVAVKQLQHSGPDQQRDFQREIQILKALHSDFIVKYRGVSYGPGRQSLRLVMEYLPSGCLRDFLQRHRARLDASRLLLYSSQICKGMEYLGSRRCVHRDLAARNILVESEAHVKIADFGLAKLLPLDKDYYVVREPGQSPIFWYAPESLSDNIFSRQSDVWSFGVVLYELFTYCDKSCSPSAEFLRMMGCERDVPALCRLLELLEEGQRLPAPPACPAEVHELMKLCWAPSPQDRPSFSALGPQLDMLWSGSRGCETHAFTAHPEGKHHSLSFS
Summary of the method: as §1

[2] = IL-2 stimulated pSTAT5 in Tall-1 T cells
[3] = selectivity: difference of pKi JAK3 and pKi JAK1
[4] = IL-2 stimulated pSTAT5, Tall-1 T cells
[5] = selectivity JAK3 over JAK1, difference of pKi
[6] = TALL-1, IL-2 stimulated pSTAT5 in Tall-1 T cells

T1 sequence (P23458 whole entry): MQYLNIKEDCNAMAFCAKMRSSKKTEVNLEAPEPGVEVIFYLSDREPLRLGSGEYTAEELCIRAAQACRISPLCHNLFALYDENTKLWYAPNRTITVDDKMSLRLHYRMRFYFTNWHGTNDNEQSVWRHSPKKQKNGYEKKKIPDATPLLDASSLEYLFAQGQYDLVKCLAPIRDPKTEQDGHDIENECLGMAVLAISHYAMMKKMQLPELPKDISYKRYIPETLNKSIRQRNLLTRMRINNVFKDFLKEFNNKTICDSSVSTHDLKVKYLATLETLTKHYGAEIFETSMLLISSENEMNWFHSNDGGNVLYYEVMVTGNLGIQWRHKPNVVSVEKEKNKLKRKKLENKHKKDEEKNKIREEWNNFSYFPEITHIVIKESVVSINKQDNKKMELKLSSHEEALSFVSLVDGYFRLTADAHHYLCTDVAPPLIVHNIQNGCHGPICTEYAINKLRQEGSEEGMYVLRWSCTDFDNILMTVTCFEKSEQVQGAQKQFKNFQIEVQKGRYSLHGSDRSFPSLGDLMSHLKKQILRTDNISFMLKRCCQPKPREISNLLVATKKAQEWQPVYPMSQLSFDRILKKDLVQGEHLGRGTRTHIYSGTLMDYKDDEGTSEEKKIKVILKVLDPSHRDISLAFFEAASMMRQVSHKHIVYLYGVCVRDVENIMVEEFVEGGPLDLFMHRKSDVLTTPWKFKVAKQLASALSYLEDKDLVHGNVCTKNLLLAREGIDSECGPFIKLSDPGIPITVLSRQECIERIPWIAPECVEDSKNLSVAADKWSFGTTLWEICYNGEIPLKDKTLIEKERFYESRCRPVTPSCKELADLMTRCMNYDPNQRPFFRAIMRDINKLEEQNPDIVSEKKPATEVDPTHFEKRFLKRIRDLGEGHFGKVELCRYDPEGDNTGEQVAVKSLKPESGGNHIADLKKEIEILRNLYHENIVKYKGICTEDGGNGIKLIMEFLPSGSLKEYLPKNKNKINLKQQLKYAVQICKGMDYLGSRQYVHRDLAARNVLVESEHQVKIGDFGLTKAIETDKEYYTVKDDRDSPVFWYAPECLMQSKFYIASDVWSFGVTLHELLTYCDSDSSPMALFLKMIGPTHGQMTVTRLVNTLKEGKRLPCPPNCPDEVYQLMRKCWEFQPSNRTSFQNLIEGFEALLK
T2 sequence (O60674 whole entry): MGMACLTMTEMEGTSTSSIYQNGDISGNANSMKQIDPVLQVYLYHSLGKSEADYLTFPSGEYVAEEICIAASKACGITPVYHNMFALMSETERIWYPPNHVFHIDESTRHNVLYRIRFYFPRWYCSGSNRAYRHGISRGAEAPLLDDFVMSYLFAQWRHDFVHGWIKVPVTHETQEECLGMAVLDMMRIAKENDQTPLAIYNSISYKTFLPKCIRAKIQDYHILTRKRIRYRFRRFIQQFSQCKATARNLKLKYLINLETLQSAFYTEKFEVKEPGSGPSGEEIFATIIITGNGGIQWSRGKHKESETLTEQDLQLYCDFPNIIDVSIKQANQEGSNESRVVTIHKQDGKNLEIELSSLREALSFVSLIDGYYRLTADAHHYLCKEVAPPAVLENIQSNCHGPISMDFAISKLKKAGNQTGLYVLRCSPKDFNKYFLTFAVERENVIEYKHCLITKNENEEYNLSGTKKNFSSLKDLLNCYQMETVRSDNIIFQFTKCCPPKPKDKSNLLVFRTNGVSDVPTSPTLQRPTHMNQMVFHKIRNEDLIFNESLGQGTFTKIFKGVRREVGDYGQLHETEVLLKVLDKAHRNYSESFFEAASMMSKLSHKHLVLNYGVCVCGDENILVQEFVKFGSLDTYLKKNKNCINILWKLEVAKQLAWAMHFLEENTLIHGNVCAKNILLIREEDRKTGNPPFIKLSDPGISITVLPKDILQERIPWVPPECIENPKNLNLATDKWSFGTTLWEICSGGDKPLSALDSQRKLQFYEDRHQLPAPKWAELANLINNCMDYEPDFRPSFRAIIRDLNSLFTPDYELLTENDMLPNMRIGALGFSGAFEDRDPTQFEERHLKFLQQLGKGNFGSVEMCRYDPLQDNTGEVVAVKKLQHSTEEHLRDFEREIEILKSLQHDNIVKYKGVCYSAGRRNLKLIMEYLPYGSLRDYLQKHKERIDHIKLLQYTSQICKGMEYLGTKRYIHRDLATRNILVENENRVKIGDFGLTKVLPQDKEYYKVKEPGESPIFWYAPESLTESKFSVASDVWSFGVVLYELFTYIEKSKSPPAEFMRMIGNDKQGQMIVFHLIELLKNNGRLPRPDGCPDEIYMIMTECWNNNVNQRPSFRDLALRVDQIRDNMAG
T3 sequence (P29597 whole entry): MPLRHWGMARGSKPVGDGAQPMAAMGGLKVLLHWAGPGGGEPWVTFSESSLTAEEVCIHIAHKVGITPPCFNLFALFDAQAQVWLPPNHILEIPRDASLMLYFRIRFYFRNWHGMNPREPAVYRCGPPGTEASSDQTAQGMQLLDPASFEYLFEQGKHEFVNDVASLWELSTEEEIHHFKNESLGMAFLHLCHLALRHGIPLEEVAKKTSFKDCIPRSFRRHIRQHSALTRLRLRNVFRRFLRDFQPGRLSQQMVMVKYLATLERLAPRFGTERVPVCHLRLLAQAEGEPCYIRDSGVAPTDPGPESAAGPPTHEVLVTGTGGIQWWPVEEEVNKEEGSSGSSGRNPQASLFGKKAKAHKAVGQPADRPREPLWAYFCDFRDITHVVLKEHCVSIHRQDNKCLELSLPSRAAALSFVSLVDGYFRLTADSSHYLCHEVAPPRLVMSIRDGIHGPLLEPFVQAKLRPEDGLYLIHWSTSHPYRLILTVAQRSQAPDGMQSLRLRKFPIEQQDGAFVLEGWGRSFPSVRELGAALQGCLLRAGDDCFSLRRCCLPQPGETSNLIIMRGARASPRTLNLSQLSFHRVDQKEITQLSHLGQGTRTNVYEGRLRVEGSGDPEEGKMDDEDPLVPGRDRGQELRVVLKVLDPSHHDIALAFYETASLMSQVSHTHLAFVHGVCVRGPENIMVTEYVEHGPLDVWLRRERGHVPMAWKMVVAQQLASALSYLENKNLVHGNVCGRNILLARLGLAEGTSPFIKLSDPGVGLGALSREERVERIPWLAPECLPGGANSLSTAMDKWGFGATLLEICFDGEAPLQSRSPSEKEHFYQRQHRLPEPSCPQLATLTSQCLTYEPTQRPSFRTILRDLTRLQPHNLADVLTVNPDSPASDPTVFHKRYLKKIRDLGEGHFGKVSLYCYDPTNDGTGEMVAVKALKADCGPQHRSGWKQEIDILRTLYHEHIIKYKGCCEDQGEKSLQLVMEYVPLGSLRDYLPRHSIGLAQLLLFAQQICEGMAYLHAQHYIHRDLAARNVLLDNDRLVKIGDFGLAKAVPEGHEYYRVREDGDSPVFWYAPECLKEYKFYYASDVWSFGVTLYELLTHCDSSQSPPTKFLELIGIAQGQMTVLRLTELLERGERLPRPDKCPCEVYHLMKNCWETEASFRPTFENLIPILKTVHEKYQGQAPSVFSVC

Row | SMILES | JAK 1 (pKi) (JAK1) | JAK 2 (pKi) (JAK2) | Tyk 2 (pKi) (Tyk2) | Tall-1 (pIC50) [1, 2] | JAK 3 (pKi) (JAK3) | JAK3 (pKi)-JAK1 (pKi) (JAK3; [3]) | Tall-1 (pIC50) [1, 4] | JAK3 (pKi)-JAK1 (pKi) (JAK3; [5]) | Ki (JAK1) [nM] | Ki (JAK2) [nM] | Ki (Tyk2) [nM] | IC50 [1, 6] [nM] | Ki (JAK3) [nM] | IC50 ([1]; TALL-1, IL-2 stimulated pSTAT5, Tall-1 T cells) [nM]
1 | C=CC(=O)N1CC(C#N)(COc2cc(-c3ccc(O)cc3)cc3[nH]ncc23)C1 [Compound 3-20] | E (a pKi value of 7 or below (Ki of 100 nM or above)) | D (a pKi value between 7 and 8 (Ki between 100 nM and 10 nM)) | E (a pKi value of 7 or below (Ki of 100 nM or above)) | B (a pIC50 value between 6.7 (included) and 7.5 (IC50 between 200 nM and 32 nM)) | B (a pKi value between 9 and 10 (Ki between 1 nM and 0.1 nM)) | B (a value of 2.3 to 3) |  |  |  |  |  |  |  | 
2 | C=CC(=O)N1CC(CSc2cc(-c3ccc(O)c(Cl)c3)nc3[nH]ncc23)C1 [Compound 13-1] | E (a pKi value of 7 or below (Ki of 100 nM or above)) | E (a pKi value of 7 or below (Ki of 100 nM or above)) | E (a pKi value of 7 or below (Ki of 100 nM or above)) |  | B (a pKi value between 9 and 10 (Ki between 1 nM and 0.1 nM)) |  | B (a pIC50 value between 6.7 (included) and 7.5 (IC50 between 200 nM and 32 nM)) | A (a value of 3 or above) |  |  |  |  |  | 
3 | C=CS(=O)(=O)N1CC[C@H](Oc2cc(-c3ccc(O)cc3)cc3[nH]ncc23)C1 [Compound 18, (S)-4-(4-((1-(vinylsulfonyl)pyrrolidin-3-yl)oxy)-1H-indazol-6-yl)phenol] |  |  |  |  |  | A (a value of 3 or above) |  |  | > 100 | 10 to 100 | > 100 | < 31.6 | 0.1 to 1 | 
4 | C=CC(=O)N1CC(COc2cc(-c3ccc(O)cc3)nc3[nH]ncc23)C1 [Compound 10, 1-(3-(((6-(4-hydroxyphenyl)-1H-pyrazolo[3,4-b]pyridin-4-yl)oxy)methyl)azetidin-1-yl)prop-2-en-1-one] |  |  |  |  |  | A (a value of 3 or above) |  |  | > 100 | > 100 | > 100 | 31.6 to 200 | < 0.1 | 
5 | C=CC(=O)N1C[C@@H](Oc2cc(-c3ccc(O)cc3)cc3[nH]ncc23)CC[C@@H]1C [Compound 12-33] |  |  |  |  |  |  |  | A (a value of 3 or above) | > 100 | > 100 | > 100 |  | 0.1 to 1 | 31.6 to 200
6 | CCC1(COc2nc(-c3ccc(O)c(F)c3)cc3[nH]ncc23)CN(C(=O)/C=C/CN(C)C)C1 [Compound 3-100] | E (a pKi value of 7 or below (Ki of 100 nM or above)) | E (a pKi value of 7 or below (Ki of 100 nM or above)) | E (a pKi value of 7 or below (Ki of 100 nM or above)) | A (a pIC50 value≥7.5 (IC50≤32 nM)) | B (a pKi value between 9 and 10 (Ki between 1 nM and 0.1 nM)) | A (a value of 3 or above) |  |  |  |  |  |  |  | 
7 | C=CC(=O)N1CC(COc2nc(-c3ccc(O)c(Cl)c3)cc3[nH]ncc23)C1 [Compound 3-35] |  |  |  |  |  | A (a value of 3 or above) |  |  | > 100 | > 100 | > 100 | < 31.6 | 0.1 to 1 | 
8 | C=CC(=O)N1CC(C#N)(COc2cc(-c3ccc(O)c(F)c3)cc3[nH]ncc23)C1 [Compound 3-23] | E (a pKi value of 7 or below (Ki of 100 nM or above)) | D (a pKi value between 7 and 8 (Ki between 100 nM and 10 nM)) | E (a pKi value of 7 or below (Ki of 100 nM or above)) | B (a pIC50 value between 6.7 (included) and 7.5 (IC50 between 200 nM and 32 nM)) | A (a pKi value≥10 (Ki≤0.1 nM)) | A (a value of 3 or above) |  |  |  |  |  |  |  | 
9 | CN(C)C/C=C/C(=O)N1CC(C)(COc2nc(-c3ccc(O)c(F)c3)cc3[nH]ncc23)C1 [Compound 3-96] | E (a pKi value of 7 or below (Ki of 100 nM or above)) | E (a pKi value of 7 or below (Ki of 100 nM or above)) | E (a pKi value of 7 or below (Ki of 100 nM or above)) | B (a pIC50 value between 6.7 (included) and 7.5 (IC50 between 200 nM and 32 nM)) | B (a pKi value between 9 and 10 (Ki between 1 nM and 0.1 nM)) | A (a value of 3 or above) |  |  |  |  |  |  |  | 
10 | CN(C/C=C/C(=O)N1CC(COc2cc(-c3ccc(O)cc3)cc3[nH]ncc23)C1)C(C)(C)C [Compound 3-116] |  |  |  |  |  | B (a value of 2.3 to 3) |  |  | > 100 | 10 to 100 | > 100 | 31.6 to 200 | 0.1 to 1 | 
11 | CN(C)C/C=C/C(=O)N1CC2(CC(Oc3cc(-c4ccc(O)c(F)c4)cc4[nH]ncc34)C2)C1 [Compound 15-5] | D (a pKi value between 7 and 8 (Ki between 100 nM and 10 nM)) | D (a pKi value between 7 and 8 (Ki between 100 nM and 10 nM)) | E (a pKi value of 7 or below (Ki of 100 nM or above)) |  | B (a pKi value between 9 and 10 (Ki between 1 nM and 0.1 nM)) |  | B (a pIC50 value between 6.7 (included) and 7.5 (IC50 between 200 nM and 32 nM)) | B (a value of 2.3 to 3) |  |  |  |  |  | 
12 | C=CC(=O)N1CC(COc2cc(-c3ccc(O)c(Cl)c3)nc3[nH]ncc23)C1 [Compound 3-86] |  |  |  |  |  | A (a value of 3 or above) |  |  | > 100 | > 100 | > 100 | 31.6 to 200 | < 0.1 | 
13 | CN(C)C/C=C/C(=O)N1CC(C(C)(C)Oc2cc(-c3ccc(O)c(F)c3)cc3[nH]ncc23)C1 [Compound 3-27] |  |  |  |  |  | A (a value of 3 or above) |  |  | > 100 | > 100 | > 100 | 31.6 to 200 | < 0.1 | 
